Test results taken from patent US10710978B2, “STK4 inhibitors for treatment of hematologic malignancies” (Dana-Farber Cancer Institute, Inc., priority 2015, dated 2020).
Where “and” joins values, the source holds several entries; their conditions need not be identical. Identical values can stand only once. Like-named read-outs stand apart in the source and are kept apart here.

How the values were obtained:
STK3 (MST2) = STK3 (MST2) (Homo sapiens (Human), UniProt Q13188); test: Z-lyte biochemical IC50 assay (Invitrogen); conditions: ATP concentration matched the Km
p-MOB1 = test: Western blotting; assay type: cell-based; conditions: MM.1S cells, 1 μM and 10 μM, 6 hours
Text: (§1) MM.1S, KMS20 and H929 cells are counted, diluted and plated. Cells are then […] with DMSO or different concentration of a compound of the present application for 6 hrs, 24 hrs or 48 hrs. MM cells are then collected and centrifuged at RT and the pellets are re-suspended in lysis buffer. Cell lysates are subjected to sodium dodecyl sulfate-polyacrylamide gel electrophoresis SDS-PAGE, transferred to nitrocellulose membranes, and immunoblotted with different antibodies.
(§2) MM.1S, KMS20 and H929 cells were counted, diluted and plated in six-well plates to a final concentration of 500,000 cells/well. Cells were then […] with DMSO or different concentration of a compound of the present application for 6 hrs, 24 hrs or 48 hrs. MM cells were then collected and centrifuged for 5 min, 1300 rpm at RT. The pellets were re-suspended in lysis buffer Laemli 1× (Laemli 5×: SDS 10%, DTT 500 mM, Tris-HCl pH6.8 0.4M, BromoFenol Blue, Glycerol 50%). Cell lysates were subjected to sodium dodecyl sulfate-polyacrylamide gel electrophoresis SDS-PAGE, transferred to nitrocellulose membranes, and immunoblotted with different antibodies: YAP1 (#4912), p-YAP1 (S127) (#13008), LATS1 (#9153), p-LATS1 (Thr1079) (#8654), MOB1 (#3863), p-MOB1 (Thr12) (#8843), p-MST1/p-MST2 (Thr183/Thr180) (#3681), p21 (#2947), PARP (#9532), ERK, STAT, and GAPDH (#5174) from Cell Signaling, Beverly, Mass., United States; STK4 (ab57836) (from Abcam, Cambridge, Mass., United States); PUMA (sc-28226), BAX (sc-20067), from Santa Cruz, Dallas, Tex., United States; β-actin from Sigma-Aldrich (St. Louis, Mo., United States). All antibodies were diluted 1:500, except for β-actin antibody (1:50,000 dilution). In FIG. 8, H929 cells were treated with Compound I-9 or DMSO at 1 μM concentration for 24 hours. Lysates were then obtained and immunoblot was performed using antibodies against PARP, YAP1, PUMA, BAX. p21, and GAPDH.
In FIGS. 26A-26J, MM.1S cells were treated with Compound I-6, Compound I-31, Compound I-30, Compound I-22, Compound I-27, Compound I-1, Compound I-23, Compound I-13, Compound I-28, Compound I-9, or DMSO at 1 μM and 10 μM concentrations for 6 hours. Lysates were then obtained and immunoblot was performed using antibodies against MOB1 and p-MOB1. As shown from FIGS. 26A-26J, Compound I-22, Compound I-27, Compound I-1, Compound I-23, Compound I-13, Compound I-28, and Compound I-9 reduced PMOB1 levels at different concentrations.

YAP1 = test: Western blotting; assay type: cell-based; conditions: for YAP1 levels: H929 and MM.1S cells
Text: as §1, §2
In FIG. 10A, H929 and MM.1S cells were treated with Compound I-1 or DMSO at 1 μM and 10 μM concentrations for 16 hours. Lysates were then obtained and immunoblot was performed using antibodies against YAP1 and GAPDH.
In FIG. 12, H929 and MM. 1S cells were treated with Compound I-9, Compound I-12, or DMSO at 3 μM and 10 μM concentrations for 72 hours. Lysates were then obtained and immunoblot was performed using antibodies against YAP1 and Actin as loading control.
FIG. 13 show a Western blot of H929 and MM.1S cells treated with Compound I-13, Compound I-28, Compound I-9, KIN001-305, BMS536924, or DMSO at 1 μM concentration for 16 hours. Lysates were then obtained and immunoblot was performed using antibodies against YAP1, Actin, and pMOB1.

DNAPK = DNAPK (Homo sapiens (Human), UniProt P78527); test: KiNativ assay; assay type: binding; conditions: H929 live cell; for % inhibition (range): 10 μM
Experimental: (§3) Biochemical IC50s of the compounds of the present disclosure against various kinases were measured in a KiNativ assay. Compounds were screened in duplicate at 10 μM in H929 live cell. IC50 was measured via Mass spectroscopy (MS).

AKT2, AKT3 = test: KiNativ assay; assay type: binding; conditions: H929 live cell; for % inhibition (range): 10 μM
Outline: (§4)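 H929 live-cell screen at 10 μM, run in duplicate. Kinase occupancy was assessed via the KiNativ platform, with IC50 determined by mass spectrometry.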

ARAF = ARAF (Homo sapiens (Human), UniProt P10398); test: KiNativ assay; assay type: binding; conditions: H929 live cell
Outline: as §4

MAP3K3 = MAP3K3 (Homo sapiens (Human), UniProt Q99759); test: KiNativ assay; assay type: binding; conditions: H929 live cell
Outline: as §4

AGK = AGK (Homo sapiens (Human), UniProt Q53H12); test: KiNativ assay; assay type: binding; conditions: H929 live cell
Outline: as §4

CDK6 = CDK6 (Homo sapiens (Human), UniProt Q00534); test: KiNativ assay; assay type: binding; conditions: H929 live cell
Experimental: as §3

PIP4K2B = PIP4K2B (Homo sapiens (Human), UniProt P78356); test: KiNativ assay; assay type: binding; conditions: H929 live cell
Outline: as §4

MER, TYRO3 = test: KiNativ assay; assay type: binding; conditions: H929 live cell; for % inhibition: 10 μM, range class
Outline: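 Treatment: 10 μM compound, H929 live cells, duplicates. Detection: KiNativ with mass spectrometry. Output: IC50.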

[1] = range class, read-out: % inhibition

MAP3K3, sequence (Q99759 whole entry): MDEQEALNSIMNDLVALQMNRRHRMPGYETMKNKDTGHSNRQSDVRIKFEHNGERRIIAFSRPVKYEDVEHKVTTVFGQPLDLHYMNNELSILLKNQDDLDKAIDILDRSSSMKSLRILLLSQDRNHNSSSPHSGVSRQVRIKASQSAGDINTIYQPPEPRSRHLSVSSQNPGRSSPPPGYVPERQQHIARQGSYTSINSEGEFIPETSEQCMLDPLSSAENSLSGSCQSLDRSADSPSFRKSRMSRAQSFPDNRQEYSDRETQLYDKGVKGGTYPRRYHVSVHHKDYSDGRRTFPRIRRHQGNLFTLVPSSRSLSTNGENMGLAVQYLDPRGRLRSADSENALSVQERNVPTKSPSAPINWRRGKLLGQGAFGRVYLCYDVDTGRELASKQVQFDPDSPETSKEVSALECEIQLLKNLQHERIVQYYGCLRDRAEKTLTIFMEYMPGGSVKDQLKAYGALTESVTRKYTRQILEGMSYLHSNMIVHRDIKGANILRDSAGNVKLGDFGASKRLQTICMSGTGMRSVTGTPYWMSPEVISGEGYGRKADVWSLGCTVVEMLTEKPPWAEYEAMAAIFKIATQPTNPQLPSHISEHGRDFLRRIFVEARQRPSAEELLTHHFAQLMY
CDK6, sequence (Q00534 whole entry): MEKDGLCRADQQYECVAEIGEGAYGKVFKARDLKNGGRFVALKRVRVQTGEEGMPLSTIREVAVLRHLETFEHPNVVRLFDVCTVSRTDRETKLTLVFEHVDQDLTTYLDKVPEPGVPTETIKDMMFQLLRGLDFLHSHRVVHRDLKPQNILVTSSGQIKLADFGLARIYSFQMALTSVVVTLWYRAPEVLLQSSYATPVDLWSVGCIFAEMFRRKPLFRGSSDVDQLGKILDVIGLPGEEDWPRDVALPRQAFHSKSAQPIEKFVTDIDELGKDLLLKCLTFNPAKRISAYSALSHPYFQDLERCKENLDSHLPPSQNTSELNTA
DNAPK, sequence (P78527 whole entry): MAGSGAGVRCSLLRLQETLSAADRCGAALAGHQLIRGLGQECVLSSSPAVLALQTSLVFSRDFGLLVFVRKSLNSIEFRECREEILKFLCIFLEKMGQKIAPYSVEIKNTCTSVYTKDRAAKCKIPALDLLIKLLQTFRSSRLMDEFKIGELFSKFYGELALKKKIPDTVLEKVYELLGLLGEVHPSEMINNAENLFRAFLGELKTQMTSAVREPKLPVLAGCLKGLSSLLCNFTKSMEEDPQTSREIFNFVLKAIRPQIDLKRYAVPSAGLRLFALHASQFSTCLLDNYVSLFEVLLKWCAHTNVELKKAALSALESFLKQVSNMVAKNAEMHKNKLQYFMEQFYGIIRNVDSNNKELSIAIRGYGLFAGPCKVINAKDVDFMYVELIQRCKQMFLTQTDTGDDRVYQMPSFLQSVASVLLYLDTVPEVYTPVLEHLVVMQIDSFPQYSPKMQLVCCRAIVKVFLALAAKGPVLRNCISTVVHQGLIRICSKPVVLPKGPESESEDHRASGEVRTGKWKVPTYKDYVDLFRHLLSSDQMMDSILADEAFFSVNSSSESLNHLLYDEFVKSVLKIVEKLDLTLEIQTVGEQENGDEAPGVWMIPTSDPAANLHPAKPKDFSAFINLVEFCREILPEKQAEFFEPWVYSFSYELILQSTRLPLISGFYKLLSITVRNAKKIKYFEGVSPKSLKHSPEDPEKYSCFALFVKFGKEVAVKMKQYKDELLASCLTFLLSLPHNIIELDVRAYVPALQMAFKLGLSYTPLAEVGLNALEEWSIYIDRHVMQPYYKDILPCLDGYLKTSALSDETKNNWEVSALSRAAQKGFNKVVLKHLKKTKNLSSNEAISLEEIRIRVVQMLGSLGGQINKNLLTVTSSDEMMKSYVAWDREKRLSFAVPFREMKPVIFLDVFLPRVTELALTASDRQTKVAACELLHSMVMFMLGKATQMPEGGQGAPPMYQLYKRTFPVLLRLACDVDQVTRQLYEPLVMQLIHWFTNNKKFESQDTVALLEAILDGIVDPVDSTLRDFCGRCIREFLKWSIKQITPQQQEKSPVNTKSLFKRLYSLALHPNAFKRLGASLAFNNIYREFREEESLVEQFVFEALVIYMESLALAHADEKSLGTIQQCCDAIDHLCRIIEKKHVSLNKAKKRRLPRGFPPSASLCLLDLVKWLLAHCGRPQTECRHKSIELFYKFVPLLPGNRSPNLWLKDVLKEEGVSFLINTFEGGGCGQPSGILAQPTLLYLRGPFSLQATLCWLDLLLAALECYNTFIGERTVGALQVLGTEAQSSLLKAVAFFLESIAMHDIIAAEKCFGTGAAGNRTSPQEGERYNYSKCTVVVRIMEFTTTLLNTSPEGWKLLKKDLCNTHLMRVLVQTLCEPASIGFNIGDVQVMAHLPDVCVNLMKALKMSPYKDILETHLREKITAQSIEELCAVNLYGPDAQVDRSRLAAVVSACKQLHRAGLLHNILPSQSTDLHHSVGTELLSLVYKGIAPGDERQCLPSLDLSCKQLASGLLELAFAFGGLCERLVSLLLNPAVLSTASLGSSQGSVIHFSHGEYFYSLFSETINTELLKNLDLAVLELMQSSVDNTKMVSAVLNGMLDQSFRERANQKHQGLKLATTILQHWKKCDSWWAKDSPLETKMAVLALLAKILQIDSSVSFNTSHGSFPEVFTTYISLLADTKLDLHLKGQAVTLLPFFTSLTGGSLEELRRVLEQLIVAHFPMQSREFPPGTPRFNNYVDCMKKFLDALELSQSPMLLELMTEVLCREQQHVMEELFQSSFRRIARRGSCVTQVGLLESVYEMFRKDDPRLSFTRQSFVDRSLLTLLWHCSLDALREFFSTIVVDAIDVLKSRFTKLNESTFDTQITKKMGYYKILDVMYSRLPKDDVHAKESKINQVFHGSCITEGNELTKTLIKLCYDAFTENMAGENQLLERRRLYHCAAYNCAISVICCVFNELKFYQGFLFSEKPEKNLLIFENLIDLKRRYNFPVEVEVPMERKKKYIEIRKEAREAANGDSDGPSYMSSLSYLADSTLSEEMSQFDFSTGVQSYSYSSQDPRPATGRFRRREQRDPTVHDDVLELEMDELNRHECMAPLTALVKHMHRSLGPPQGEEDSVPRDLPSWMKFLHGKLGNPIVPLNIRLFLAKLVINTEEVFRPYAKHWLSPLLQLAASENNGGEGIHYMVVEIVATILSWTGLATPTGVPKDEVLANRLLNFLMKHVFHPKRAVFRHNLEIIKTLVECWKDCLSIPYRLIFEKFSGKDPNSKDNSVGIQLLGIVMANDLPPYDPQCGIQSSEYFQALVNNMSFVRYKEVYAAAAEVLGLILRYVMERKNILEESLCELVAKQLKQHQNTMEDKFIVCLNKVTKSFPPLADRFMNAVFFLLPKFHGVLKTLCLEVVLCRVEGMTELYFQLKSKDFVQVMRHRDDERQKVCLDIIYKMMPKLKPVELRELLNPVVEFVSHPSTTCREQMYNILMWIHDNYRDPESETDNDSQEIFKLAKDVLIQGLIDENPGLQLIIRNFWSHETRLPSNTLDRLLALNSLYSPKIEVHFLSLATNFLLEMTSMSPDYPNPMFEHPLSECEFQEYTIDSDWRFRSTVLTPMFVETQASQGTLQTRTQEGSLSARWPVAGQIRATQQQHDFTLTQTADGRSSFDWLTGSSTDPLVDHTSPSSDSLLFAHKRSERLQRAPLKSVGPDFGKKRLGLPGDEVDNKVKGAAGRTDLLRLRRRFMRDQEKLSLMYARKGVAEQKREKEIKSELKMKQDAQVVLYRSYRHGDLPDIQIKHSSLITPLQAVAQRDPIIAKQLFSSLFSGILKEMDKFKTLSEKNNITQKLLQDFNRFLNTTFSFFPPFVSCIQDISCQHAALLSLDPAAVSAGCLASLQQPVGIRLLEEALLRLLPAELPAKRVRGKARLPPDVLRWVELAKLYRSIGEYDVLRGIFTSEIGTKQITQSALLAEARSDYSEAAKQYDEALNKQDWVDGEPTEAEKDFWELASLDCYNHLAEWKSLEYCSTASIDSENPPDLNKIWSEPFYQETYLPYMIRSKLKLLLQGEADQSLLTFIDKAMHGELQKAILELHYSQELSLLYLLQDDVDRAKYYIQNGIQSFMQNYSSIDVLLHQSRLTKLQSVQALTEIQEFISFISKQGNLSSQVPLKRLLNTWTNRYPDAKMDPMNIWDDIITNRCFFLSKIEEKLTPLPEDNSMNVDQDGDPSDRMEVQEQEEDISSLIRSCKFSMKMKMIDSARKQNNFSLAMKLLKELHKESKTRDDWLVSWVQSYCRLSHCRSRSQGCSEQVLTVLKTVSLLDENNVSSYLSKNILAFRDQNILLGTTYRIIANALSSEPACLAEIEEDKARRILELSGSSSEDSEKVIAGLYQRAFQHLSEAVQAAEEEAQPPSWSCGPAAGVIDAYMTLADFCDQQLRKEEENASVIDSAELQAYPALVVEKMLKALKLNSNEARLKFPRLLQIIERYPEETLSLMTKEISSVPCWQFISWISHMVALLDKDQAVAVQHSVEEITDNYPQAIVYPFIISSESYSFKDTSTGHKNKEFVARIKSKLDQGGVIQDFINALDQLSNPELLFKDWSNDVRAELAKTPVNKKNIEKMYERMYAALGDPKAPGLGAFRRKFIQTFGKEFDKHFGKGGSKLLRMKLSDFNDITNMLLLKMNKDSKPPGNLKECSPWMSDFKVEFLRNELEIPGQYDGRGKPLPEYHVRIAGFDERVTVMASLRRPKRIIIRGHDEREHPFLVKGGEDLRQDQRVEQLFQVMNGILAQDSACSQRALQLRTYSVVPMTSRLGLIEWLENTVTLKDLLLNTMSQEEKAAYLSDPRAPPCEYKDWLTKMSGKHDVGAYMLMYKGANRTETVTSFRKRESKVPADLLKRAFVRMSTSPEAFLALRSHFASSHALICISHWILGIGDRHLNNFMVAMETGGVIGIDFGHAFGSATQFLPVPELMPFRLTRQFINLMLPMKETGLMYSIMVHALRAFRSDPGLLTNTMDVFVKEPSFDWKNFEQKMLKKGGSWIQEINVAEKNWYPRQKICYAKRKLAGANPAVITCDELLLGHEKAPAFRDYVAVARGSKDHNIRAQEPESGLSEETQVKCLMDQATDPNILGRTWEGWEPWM

Nc1ncc(-c2cc([N+](=O)[O-])ccc2F)cc1-c1ccc2c(c1)CCNC2=O [Compound I-1, 6-(2-amino-5-(2-fluoro-5-nitrophenyl)pyridin-3-yl)-3,4-dihydroisoquinolin-1(2H)-one]
IC50 (STK3 (MST2)): 0.04 to 0.2 µM | PMOB1 levels (p-MOB1): reduced | protein levels of YAP1 (YAP1; H929 cells and MM.1S cells, 1 μM and 10 μM, 16 hours): upregulation

Nc1ncc(-c2cccc([N+](=O)[O-])c2F)cc1-c1ccc2c(c1)CCNC2=O [Compound I-9, 6-(2-amino-5-(2-fluoro-3-nitrophenyl)pyridin-3-yl)-3,4-dihydroisoquinolin-1(2H)-one]
% inhibition (range) (DNAPK): >90% | inhibition (10 μM) (DNAPK): 94.0% | inhibition at 10 µM (DNAPK; read-out: % inhibition (range)): 75 to 90% | inhibition at 10 µM (DNAPK; read-out: inhibition (10 μM)): 79.4% | % inhibition (range) (AKT2, AKT3): 0.0% | inhibition (10 μM) (AKT2, AKT3): −1.3% | inhibition at 10 µM (ARAF; read-out: % inhibition (range)): 0% | inhibition at 10 µM (ARAF; read-out: inhibition (10 μM)): 9.5% | IC50 (STK3 (MST2)): < 0.04 µM | PMOB1 levels (p-MOB1): reduced | YAP1 levels (YAP1; 1 μM, 16 hours): increase | YAP1 levels (YAP1; 3 μM and 10 μM, 72 hours): low | protein levels of YAP1 (YAP1; H929 cells, 1 μM, 24 hours): upregulation

Nc1ncc(-c2cccc3ncsc23)cc1-c1ccc2c(c1)CCNC2=O [Compound I-13, 6-(2-amino-5-(benzo[d]thiazol-7-yl)pyridin-3-yl)-3,4-dihydroisoquinolin-1(2H)-one]
% inhibition (range) (DNAPK): 50-75% | inhibition (10 μM) (DNAPK): 59.4% | inhibition at 10 µM (DNAPK; read-out: % inhibition (range)): 35 to 50% | inhibition at 10 µM (DNAPK; read-out: inhibition (10 μM)): 44.7% | % inhibition (range) (AKT2, AKT3): 0.0% | inhibition (10 μM) (AKT2, AKT3): 19.0% | inhibition at 10 µM (ARAF; read-out: % inhibition (range)): 0% | inhibition at 10 µM (ARAF; read-out: inhibition (10 μM)): 16.7% | IC50 (STK3 (MST2)): 0.04 to 0.2 µM | PMOB1 levels (p-MOB1): reduced | YAP1 levels (YAP1; 1 μM, 16 hours): increase

CN(C1CC1)S(=O)(=O)c1ccc(-c2cnc(N)c(-c3ccc4c(c3)CCNC4=O)c2)c(F)c1 [Compound I-28, 4-(6-amino-5-(1-oxo-1,2,3,4-tetrahydroisoquinolin-6-yl)pyridin-3-yl)-N-cyclopropyl-3-fluoro-N-methylbenzenesulfonamide]
inhibition (10 μM) (DNAPK): 42.6% and 82.1% | % inhibition (range) (AKT2, AKT3): 0.0% | inhibition (10 μM) (AKT2, AKT3): 14.9% | inhibition at 10 µM (ARAF; read-out: % inhibition (range)): 0% | inhibition at 10 µM (ARAF; read-out: inhibition (10 μM)): 8% | IC50 (STK3 (MST2)): < 0.04 µM | PMOB1 levels (p-MOB1): reduced | YAP1 levels (YAP1; 1 μM, 16 hours): increase

COc1cc(NS(=O)(=O)C2CC2)ccc1-c1cnc(N)c(-c2ccc3c(c2)CCNC3=O)c1 [Compound I-50, N-(4-(6-amino-5-(1-oxo-1,2,3,4-tetrahydroisoquinolin-6-yl)pyridin-3-yl)-3-methoxyphenyl) cyclopropanesulfonamide]
inhibition at 10 µM (MAP3K3; [1]): 0% | inhibition at 10 µM (MAP3K3; read-out: inhibition (10 μM)): -5.7% | inhibition at 10 µM (AGK; [1]): 0% | inhibition at 10 µM (AGK; read-out: inhibition (10 μM)): 11.5% | inhibition at 10 µM (DNAPK; [1]): 0% | inhibition at 10 µM (CDK6; [1]): 0% | inhibition at 10 µM (CDK6; read-out: inhibition (10 μM)): 15% | inhibition at 10 µM (PIP4K2B; [1]): 0% | inhibition at 10 µM (PIP4K2B; read-out: inhibition (10 μM)): -31.5% | % inhibition (MER, TYRO3): 0.0% | inhibition (10 μM) (MER, TYRO3): −2.0%

Nc1ncc(-c2ccc(NS(=O)(=O)C3CC3)cc2F)cc1-c1ccc2c(c1)CCNC2=O [Compound I-51, N-(4-(6-amino-5-(1-oxo-1,2,3,4-tetrahydroisoquinolin-6-yl)pyridin-3-yl)-3-fluorophenyl) cyclopropanesulfonamide]
inhibition at 10 µM (MAP3K3; [1]): 0% | inhibition at 10 µM (MAP3K3; read-out: inhibition (10 μM)): -29.3% | inhibition at 10 µM (AGK; [1]): 0% | inhibition at 10 µM (AGK; read-out: inhibition (10 μM)): -12.1% | inhibition at 10 µM (CDK6; [1]): 0% | inhibition at 10 µM (CDK6; read-out: inhibition (10 μM)): 10.7% | inhibition at 10 µM (PIP4K2B; [1]): 0% | inhibition at 10 µM (PIP4K2B; read-out: inhibition (10 μM)): -47.1% | % inhibition (MER, TYRO3): 0.0% | inhibition (10 μM) (MER, TYRO3): −11.0%

Nc1ncc(-c2ccc(NS(=O)(=O)C3CC3)cc2OC2CCCCC2)cc1-c1ccc2c(c1)CCNC2=O [Compound I-65, N-(4-(6-amino-5-(1-oxo-1,2,3,4-tetrahydroisoquinolin-6-yl)pyridin-3-yl)-3-(cyclohexyloxy)phenyl) cyclopropanesulfonamide]
inhibition at 10 µM (MAP3K3; [1]): 0% | inhibition at 10 µM (MAP3K3; read-out: inhibition (10 μM)): -28.3% | inhibition at 10 µM (AGK; [1]): 0% | inhibition at 10 µM (AGK; read-out: inhibition (10 μM)): -21.2% | inhibition at 10 µM (CDK6; [1]): 0% | inhibition at 10 µM (CDK6; read-out: inhibition (10 μM)): 0.5% | inhibition at 10 µM (PIP4K2B; [1]): 0% | inhibition at 10 µM (PIP4K2B; read-out: inhibition (10 μM)): -8.9% | % inhibition (MER, TYRO3): 0.0% | inhibition (10 μM) (MER, TYRO3): 4.6%
